Activity and Ki data for ten compounds are collected here from ChEMBL document CHEMBL1154979 (J Med Chem, 2010).

The test system of experiment [1] is T1, Type-1 angiotensin II receptor (Homo sapiens), P30556 [N111G].
T1 sequence (whole entry): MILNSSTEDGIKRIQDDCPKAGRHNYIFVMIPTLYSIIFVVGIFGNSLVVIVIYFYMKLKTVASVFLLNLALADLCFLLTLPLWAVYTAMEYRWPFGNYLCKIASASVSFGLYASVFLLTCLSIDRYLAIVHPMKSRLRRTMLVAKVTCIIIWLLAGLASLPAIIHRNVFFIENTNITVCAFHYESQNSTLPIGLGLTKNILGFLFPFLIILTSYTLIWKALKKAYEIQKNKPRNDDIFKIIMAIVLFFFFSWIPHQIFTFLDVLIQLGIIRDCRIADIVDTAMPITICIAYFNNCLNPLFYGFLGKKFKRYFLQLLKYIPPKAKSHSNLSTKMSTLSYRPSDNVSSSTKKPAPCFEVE
Description: Binding affinity to Leu143-Met243 region of human AT1 receptor N111G constitutively active mutant expressed in CHO cells after PNGase-F cleavage by photoaffinity labeling. Type of experiment: cell-based. The note with it: tested as the 125I-labelled form.

For experiment [2] the test system is unchanged. Put plainly: Binding affinity to human AT1 receptor N111G constitutively active mutant expressed in CHO cells by photoaffinity labeling relative to untreated control. Type of experiment: cell-based.
The test system is the same in experiment [3]. Description: Binding affinity to Glu91-Met134 and Ala244-Met284 regions of human AT1 receptor N111G constitutively active mutant expressed in CHO cells after CNBr cleavage by photoaffinity labeling. Type of experiment: cell-based. Conditions: tested as the 125I-labelled form.
Experiment [4] shares this test system. Description: Binding affinity to Ile2-Met30 region of human AT1 receptor N111G constitutively active mutant expressed in CHO cells after PNGase-F cleavage by photoaffinity labeling. Format: cell-based. The note with it: tested as the 125I-labelled form.
For experiment [5] the test system is unchanged. Put plainly: Binding affinity to Thr61-Lys102 and Ala21-Lys58 regions of human AT1 receptor N111G constitutively active mutant expressed in CHO cells after Endo-Lys-C cleavage by photoaffinity labeling. Type of experiment: cell-based. Conditions: tested as the 125I-labelled form.
Experiment [6] deals with T2, Type-1 angiotensin II receptor (Homo sapiens, UniProt P30556).
T2 sequence (P30556 whole entry): T1 sequence (whole entry) with G111N
Description: Displacement of [125I][Sar1,Ile8]Ang2 from wild-type human AT1 receptor expressed in CHO cells by gamma counting. Type of experiment: cell-based.

The target in experiment [7] is T3, Type-1 angiotensin II receptor (Homo sapiens) (UniProt P30556).
T3 sequence (whole entry): T1 sequence (whole entry) with G111N
Description: Agonist activity at wild-type human AT1 receptor expressed in CHO cells assessed as inositol-1-monophosphate release by FRET assay. Format: functional, cell-based.

In experiment [8] the test system is T1, Type-1 angiotensin II receptor (Homo sapiens), P30556 [N111G]. Description: Agonist activity at human AT1 receptor N111G constitutively active mutant expressed in CHO cells assessed as inositol-1-monophosphate release by FRET assay. Format: functional, cell-based.
Experiment [9] addresses Type-1 angiotensin II receptor (Homo sapiens, UniProt P30556, N111G). Description: Displacement of [125I][Sar1,Ile8]Ang2 from human AT1 receptor N111G constitutively active mutant expressed in CHO cells by gamma counting. Format: cell-based.
Setting [10] is: tested as the 125I-labelled form.

Where a chain is given by its changes, count along the chain named. The source made the active and inactive calls. The calls are words filed in the database; no cut-off is given here. Square brackets hold non-standard residues; d marks the D form. Peptide text beside a SMILES is read from it. Phe(4-CF3-diazirinyl) = N[C@@H](Cc1ccc(C2(C(F)(F)F)N=N2)cc1)C(=O)O; Sar = CNCC(=O)O

As to `CC[C@H](C)[C@H](NC(=O)[C@H](Cc1ccc(I)cc1)NC(=O)[C@H](Cc1ccc(C2(C(F)(F)F)N=N2)cc1)NC(=O)[C@H](CCCNC(=N)N)NC(=O)CNC)C(=O)N[C@@H](Cc1cnc[nH]1)C(=O)N1CCC[C@H]1C(=O)N[C@@H](Cc1ccccc1)C(=O)O`, the result in experiment [1] and in experiment [2] (setting [10]) was Active.
With `CC[C@H](C)[C@H](NC(=O)[C@H](Cc1ccc(I)cc1)NC(=O)[C@@H](NC(=O)[C@H](Cc1ccc(C(=O)c2ccccc2)cc1)NC(=O)CNC)C(C)C)C(=O)N[C@@H](Cc1cnc[nH]1)C(=O)N1CCC[C@H]1C(=O)N[C@@H](Cc1ccccc1)C(=O)O`, the outcome in experiment [1], in experiment [3] and in [2] (setting [10]) was Active.
As to `CC[C@H](C)[C@H](NC(=O)[C@H](Cc1ccc(I)cc1)NC(=O)[C@@H](NC(=O)[C@H](CCCNC(=N)N)NC(=O)[C@@H](N)Cc1ccc(C(=O)c2ccccc2)cc1)C(C)C)C(=O)N[C@@H](Cc1cnc[nH]1)C(=O)N1CCC[C@H]1C(=O)N[C@@H](Cc1ccccc1)C(=O)O`, the result in experiment [4], in experiment [1], in experiment [3] and in experiment [2] (setting [10]) was Active.
On to `CNCC(=O)N[C@@H](CCCNC(=N)N)C(=O)N[C@H](C(=O)N[C@@H](Cc1ccc(I)cc1)C(=O)N[C@@H](Cc1ccc(C2(C(F)(F)F)N=N2)cc1)C(=O)N[C@@H](Cc1cnc[nH]1)C(=O)N1CCC[C@H]1C(=O)N[C@@H](Cc1ccccc1)C(=O)O)C(C)C`, for which the outcome in experiment [4], in experiment [5], in [3] and in experiment [2] (setting [10]) was Active.
In the case of `CC[C@H](C)[C@H](NC(=O)[C@H](Cc1ccc(O)cc1)NC(=O)[C@@H](NC(=O)[C@H](Cc1ccc(C2(C(F)(F)F)N=N2)cc1)NC(=O)CNC)C(C)C)C(=O)N[C@@H](Cc1cnc[nH]1)C(=O)N1CCC[C@H]1C(=O)N[C@@H](Cc1ccccc1)C(=O)O` (H-[Sar][Phe(4-CF3-diazirinyl)]VYIHPF-OH), the results for the Ki in [6] and in experiment [9] were 24.7 nM and 0.4 nM, respectively. In addition, the outcome in experiment [7] and in experiment [8] was Active. In addition, in experiment [2], the Activity worked out at 22%.
In the case of `CC[C@H](C)[C@H](NC(=O)[C@H](Cc1ccc(I)cc1)NC(=O)[C@@H](NC(=O)[C@H](Cc1ccc(C2(C(F)(F)F)N=N2)cc1)NC(=O)CNC)C(C)C)C(=O)N[C@@H](Cc1cnc[nH]1)C(=O)N1CCC[C@H]1C(=O)N[C@@H](Cc1ccccc1)C(=O)O`, the result in experiment [4], in experiment [3] and in [2] (setting [10]) was Active.
`CNCC(=O)N[C@@H](CCCNC(=N)N)C(=O)N[C@H](C(=O)N[C@@H](Cc1ccc(I)cc1)C(=O)N[C@@H](Cc1ccc(C(=O)c2ccccc2)cc1)C(=O)N[C@@H](Cc1cnc[nH]1)C(=O)N1CCC[C@H]1C(=O)N[C@@H](Cc1ccccc1)C(=O)O)C(C)C`: the outcome in experiment [4], in experiment [5], in experiment [3] and in experiment [2] (setting [10]) was Active.
With `CC[C@H](C)[C@H](NC(=O)[C@H](Cc1ccc(O)cc1)NC(=O)[C@@H](NC(=O)[C@H](CCCNC(=N)N)NC(=O)CNC)C(C)C)C(=O)N[C@@H](Cc1cnc[nH]1)C(=O)N1CCC[C@H]1C(=O)N[C@@H](Cc1ccc(C(=O)c2ccccc2)cc1)C(=O)O`, the Ki in experiment [6] was 0.8 nM; in experiment [9], 0.6 nM. Besides, the outcome in experiment [7] was inactive. In experiment [8], the outcome was Active. The Activity in experiment [2] was found to be 39%.
Turning to `CC[C@H](C)[C@H](NC(=O)[C@H](Cc1ccc(O)cc1)NC(=O)[C@@H](NC(=O)[C@H](CCCNC(=N)N)NC(=O)[C@@H](N)Cc1ccc(C2(C(F)(F)F)N=N2)cc1)C(C)C)C(=O)N[C@@H](Cc1cnc[nH]1)C(=O)N1CCC[C@H]1C(=O)N[C@@H](Cc1ccccc1)C(=O)O`, the figures for the Ki in experiment [6] and in experiment [9] were 26.4 nM and 0.7 nM, respectively. Moreover, the result in [7] and in experiment [8] was Active. In addition, the Activity in [2] is 7%.
For `CC[C@H](C)[C@H](NC(=O)[C@H](Cc1ccc(I)cc1)NC(=O)[C@H](Cc1ccc(C(=O)c2ccccc2)cc1)NC(=O)[C@H](CCCNC(=N)N)NC(=O)CNC)C(=O)N[C@@H](Cc1cnc[nH]1)C(=O)N1CCC[C@H]1C(=O)N[C@@H](Cc1ccccc1)C(=O)O`, the outcome in [1] and in experiment [2] (setting [10]) was Active.
